PubChem BioAssay AID248 (DTP/NCI, 2004)
Several values for one entry are separate records, joined by “and”; a condition that tells them apart may be missing. Identical values can stand only once. Inconclusive results and toxic doses are left out.

System: L1210 leukemia ip in BDF1 mice, survival T/C
Assay: NCI In Vivo Anticancer Drug Screen. Data for tumor model L1210 Leukemia (intraperitoneal) in B6D2F1 (BDF1) mice
Conditions: endpoint: mean survival time, higher = longer survival
Outline: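 Mice bearing the transplanted tumor received compound or vehicle. Survival of the treated group was divided by that of the vehicle-treated control group to give the ratio.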

[1] = dose: 100.0 mg/kg/injection, schedule: Q04DX003 (ip), vehicle: saline with Tween-80
[2] = dose: 200.0 mg/kg/injection, schedule: Q04DX003 (ip), vehicle: saline with Tween-80
[3] = dose: 400.0 mg/kg/injection, schedule: Q04DX003 (ip), vehicle: saline with Tween-80
[4] = dose: 50.0 mg/kg/injection, schedule: Q04DX003 (ip), vehicle: Klucel (hydroxypropylcellulose) (HPC)
[5] = dose: 100.0 mg/kg/injection, schedule: Q01DX009 (ip), vehicle: saline
[6] = dose: 100.0 mg/kg/injection, schedule: Q04DX003 (ip), vehicle: Klucel (hydroxypropylcellulose) (HPC)
[7] = dose: 200.0 mg/kg/injection, schedule: Q01DX009 (ip), vehicle: Klucel (hydroxypropylcellulose) (HPC)
[8] = dose: 200.0 mg/kg/injection, schedule: Q04DX003 (ip), vehicle: Klucel (hydroxypropylcellulose) (HPC)
[9] = dose: 100.0 mg/kg/injection, schedule: Q01DX009 (ip), vehicle: saline with Tween-80
[10] = dose: 200.0 mg/kg/injection, schedule: Q01DX009 (ip), vehicle: saline with Tween-80
[11] = dose: 400.0 mg/kg/injection, schedule: Q01DX009 (ip), vehicle: saline with Tween-80

O=C(O)CC(C(=O)O)c1ccccc1 (configuration not stated)
T/C [1]: 88 % of control | T/C [2]: 103 % of control | T/C [3]: 106 % of control

CCSc1ncnc2c1ncn2CN1CCOCC1
T/C (dose: 15.0 mg/kg/injection, schedule: Q01DX009 (ip), vehicle: saline): 116 % of control | T/C (dose: 40.0 mg/kg/injection, schedule: Q01DX009 (ip), vehicle: Klucel (hydroxypropylcellulose) (HPC)): 113 % of control | T/C (dose: 45.0 mg/kg/injection, schedule: Q01DX009 (ip), vehicle: saline): 103 % of control and 111 % of control | T/C [4]: 100 % of control | T/C (dose: 60.0 mg/kg/injection, schedule: Q01DX009 (ip), vehicle: Klucel (hydroxypropylcellulose) (HPC)): 116 % of control | T/C (dose: 65.0 mg/kg/injection, schedule: Q01DX009 (ip), vehicle: saline): 103 % of control and 111 % of control | T/C (dose: 66.0 mg/kg/injection, schedule: Q01DX009 (ip), vehicle: saline): 116 % of control | T/C [5]: 108 % of control | T/C [6]: 105 % of control | T/C (dose: 100.0 mg/kg/injection, schedule: Q04DX003 (ip), vehicle: saline): 115 % of control | T/C (dose: 120.0 mg/kg/injection, schedule: Q01DX009 (ip), vehicle: saline): 177 % of control | T/C (dose: 150.0 mg/kg/injection, schedule: Q01DX009 (ip), vehicle: saline): 164 % of control and 168 % of control | T/C (dose: 150.0 mg/kg/injection, schedule: Q04DX003 (ip), vehicle: saline): 111 % of control | T/C (dose: 175.0 mg/kg/injection, schedule: Q01DX009 (ip), vehicle: saline): 151 % of control | T/C [7]: 173 % of control | T/C [8]: 109 % of control | T/C (dose: 220.0 mg/kg/injection, schedule: Q01DX009 (ip), vehicle: saline): 160 % of control | T/C (dose: 220.0 mg/kg/injection, schedule: Q04DX003 (ip), vehicle: saline): 119 % of control | T/C (dose: 225.0 mg/kg/injection, schedule: Q01DX009 (ip), vehicle: saline): 122 % of control | T/C (dose: 265.0 mg/kg/injection, schedule: Q01DX009 (ip), vehicle: saline): 95 % of control | T/C (dose: 330.0 mg/kg/injection, schedule: Q01DX009 (ip), vehicle: saline): 107 % of control | T/C (dose: 400.0 mg/kg/injection, schedule: Q01DX009 (ip), vehicle: saline): 88 % of control

CN(C)CC/C=C1\c2ccccc2CCSc2ccccc21
T/C (dose: 25.0 mg/kg/injection, schedule: Q04DX003 (ip), vehicle: Klucel (hydroxypropylcellulose) (HPC)): 100 % of control | T/C [4]: 100 % of control | T/C [6]: 98 % of control

Cc1ccc(C(N)=O)cn1
T/C [9]: 104 % of control | T/C [10]: 104 % of control | T/C [2]: 107 % of control | T/C [11]: 101 % of control | T/C [3]: 97 % of control

COC(C(OC)N1CCOCC1)N1CCOCC1 (configuration not stated)
T/C (dose: 50.0 mg/kg/injection, schedule: Q01DX009 (ip), vehicle: saline): 102 % of control | T/C [9]: 95 % of control | T/C [5]: 110 % of control | T/C [1]: 93 % of control | T/C (dose: 132.0 mg/kg/injection, schedule: Q01DX009 (ip), vehicle: saline with Tween-80): 90 % of control | T/C [10]: 101 % of control and 97 % of control | T/C [2]: 98 % of control | T/C (dose: 300.0 mg/kg/injection, schedule: Q01DX009 (ip), vehicle: saline with Tween-80): 99 % of control | T/C [11]: 89 % of control | T/C [3]: 94 % of control

COC(=O)c1ccc([N+](=O)[O-])cc1O
T/C [1]: 101 % of control | T/C [2]: 102 % of control | T/C [3]: 104 % of control

N#Cc1ccc(N=S=O)cc1
T/C (dose: 100.0 mg/kg/injection, schedule: Q04DX002 (ip), vehicle: saline with Tween-80): 105 % of control | T/C (dose: 200.0 mg/kg/injection, schedule: Q04DX002 (ip), vehicle: saline with Tween-80): 112 % of control

CC(C)CCCC(C)C1CCC2C3CC=C4CC(OP(=O)(N5CC5)N5CC5)CCC4(C)C3CCC12C (configuration not stated)
T/C (dose: 50.0 mg/kg/injection, schedule: Q01DX001 (sc), vehicle: steriod suspending solution): 102 % of control | T/C (dose: 100.0 mg/kg/injection, schedule: Q01DX001 (sc), vehicle: steriod suspending solution): 96 % of control | T/C (dose: 200.0 mg/kg/injection, schedule: Q01DX001 (sc), vehicle: steriod suspending solution): 94 % of control | T/C (dose: 400.0 mg/kg/injection, schedule: Q01DX001 (sc), vehicle: steriod suspending solution): 89 % of control

OC1CCC2CCCC2C1 (configuration not stated)
T/C (dose: 100.0 mg/kg/injection, schedule: Q01DX009 (ip), vehicle: Klucel (hydroxypropylcellulose) (HPC)): 97 % of control | T/C [6]: 102 % of control | T/C [7]: 97 % of control | T/C [8]: 98 % of control | T/C (dose: 400.0 mg/kg/injection, schedule: Q04DX003 (ip), vehicle: Klucel (hydroxypropylcellulose) (HPC)): 99 % of control
